Laboratory results published in patent US20130130912A1, “AGROCHEMICAL FORMULATION COMPOSITION” (priority 2010, published 2013).

Legend:
[1] = solubility of pesticide actives in dialkyl carbonate solvents (CIPAC method MT181); assay type: physicochemical; details: 20 deg C.; for solubility in Bis-(2-ethylhexyl) carbonate solvent: Bis-(2-ethylhexyl) carbonate solvent (comparative)
Excerpt: All solubility measurements are done according to the CIPAC method MT181.

[2] = phytotoxic properties of dialkyl carbonates
Excerpt: A further advantage of the dialkylcarbonates used, is their compatibility with construction materials used in spraying equipment.

SMILES | solubility in Bis-(2-ethylhexyl) carbonate solvent [1] | SOLUBILITY OF PESTICIDE ACTIVES IN di-n-butylcarbonate (DNBC) SOLVENT [1] | solubility in di-n-pentyl carbonate solvent [1] | SOLUBILITY OF PESTICIDE ACTIVES IN di-n-propylcarbonate (DNPC) SOLVENT [1] | phytotoxicity [2]
Fc1ccc([C@]2(Cn3cncn3)O[C@H]2c2ccccc2Cl)cc1 (racemic) [Epoxiconazole] | <10 grams/litre | 45 grams/litre | 20-25 grams/litre | – | –
CCNc1nc(NC(C)C)nc(SC)n1 [Ametryn] | 80-100 grams/litre | 350 grams/litre | 120 grams/litre | >250 grams/litre | –
O=C(Nc1ccc(F)cc1F)c1cccnc1Oc1cccc(C(F)(F)F)c1 [Diflufenican] | <10 grams/litre | <50 grams/litre | 14-20 grams/litre | – | –
CCc1cccc(C)c1N(C(=O)CCl)C(C)COC (centres unmarked) [Metolachlor] | >200 grams/litre | >600 grams/litre | >200 grams/litre | – | –
CCC(CC)Nc1c([N+](=O)[O-])cc(C)c(C)c1[N+](=O)[O-] [Pendimethalin] | 80-100 grams/litre | >300 grams/litre | >100 grams/litre | >300 grams/litre | –
CC(C)(C)C(O)(CCc1ccc(Cl)cc1)Cn1cncn1 (centres unmarked) [Tebuconazole] | <10 grams/litre | 140 grams/litre | 33-40 grams/litre | >100 grams/litre | –
CC(C)(C)C(O)C(Oc1ccc(Cl)cc1)n1cncn1 (centres unmarked) [Triadimenol] | <10 grams/litre | 45 grams/litre | 20-25 grams/litre | – | –
CCCN(CCC)c1c([N+](=O)[O-])cc(C(F)(F)F)cc1[N+](=O)[O-] [Trifluralin] | 80-100 grams/litre | >600 grams/litre | >250 grams/litre | >600 grams/litre | –
CCCCOC(=O)OCCCC [di-n-butyl carbonate, di-n-butylcarbonate] | – | – | – | – | not to be phytotoxic
